# Results from patent publication EP0407586A1, “HUMAN MONOCLONAL ANTIBODY AND PROCESS FOR ITS PREPARATION” (TEIJIN LIMITED, priority 1988, dated 1990).
# System: reaction of the MCA produced by hybridoma 11-50 with human colon cancer cell line SW480
# Assay: Inhibition of the reaction of the MCA with immobilized SW480 cells (ELISA)
# Format: binding
# Details: SW480, result in words
# Method: It was determined by the ELISA. As an antigen, 10 µg/ml asialofetuin (SIGMA) solution in 0.1 M borate buffer (pH 8.6) whose 100 ul was immobilized to each well of the Falcon microtest III plate (96 wells) was used. The supernatant of the hybridoma culture mixture was added to the plate with 50 µl every well and allowed to stand at room temperature for 1 hour. The wells were washed with 1 % bovine serum albumin (abbreviated to BSA hereinafter)-containing Hanks' buffer salt solution (abbreviated to HBSS-B) 3 times, then 100 µl of 0.6 mg/ml p-nitrophenyl phosphate solution in 1 M diethanolamine + 1 mM MgCl2 (pH 9.8) were added. After 30 to 60 minutes, the absorbance at 405 nm wavelength was measured to select the hybridomas with antibody activity.
# Fifty microliters of 30-fold diluted culture supernatant of hybridoma 11-50 with HBSS-B and fifty microliters of a variety of protein solutions diluted stepwise with HBSS-B (described in Table 3) were mixed beforehand, then 50 µl of the mixture was added to a -96-well plate to which human colon cancer cell line SW480 had been immobilized with glutaraldehyde, then allowed to stand at room temperature for 1 hour. The following procedures were done according to the method described in Example 1-(3).
# Inhibitory activity in % = [1 - (A405 in the presence of an inhibitor)/(A405-in the absence of an inhibitor)]
# Various kinds of oligosaccharides (listed in Table 4) were diluted stepwise with HBSS-B and the solutions were used to conduct the evaluation according to the method ,described in Example 4-(1).
row,SMILES,inhibitory action of oligosaccharides
1,"CC(=O)N[C@H]1[C@H](O[C@H]2[C@@H](O)[C@@H](CO)O[C@@H](O[C@H]3[C@H](O)[C@@H](O)C(O)O[C@@H]3CO)[C@@H]2O)O[C@H](CO)[C@@H](O)[C@@H]1O[C@@H]1O[C@H](CO)[C@H](O)[C@H](O)[C@H]1O (stereo partly drawn) [Lacto-N-tetraose, Galβ1→3GlcNAcβ1→3Galβ1→4Glc]",strongest inhibition

# Same assay, conditions: SW480; read-out: IC50 (concentration of oligosaccharides inhibiting the bonding of MCA to the cancer cells by 50%)
row,SMILES,IC50
1,"O=C[C@H](O)[C@@H](O)[C@H](O[C@@H]1O[C@H](CO)[C@@H](O)[C@H](O)[C@H]1O)[C@H](O)CO [Cellobiose, Galβ1→4Glc]",> 50 mM
2,CO[C@H]1O[C@H](CO)[C@H](O)[C@H](O[C@@H]2O[C@H](CO)[C@H](O)[C@H](O)[C@H]2O)[C@H]1NC(C)=O [Galβ1→3GalNAcα1-OMe],2.8 mM
3,CO[C@@H]1O[C@H](CO)[C@@H](O[C@@H]2O[C@H](CO)[C@H](O)[C@H](O)[C@H]2O)[C@H](O)[C@H]1NC(C)=O [Galβ1→4GlcNAcβ1-OMe],> 5 mM
4,"CC(=O)N[C@H]1[C@H](O[C@H]2[C@@H](O)[C@@H](CO)O[C@@H](O[C@H]3[C@H](O)[C@@H](O)C(O)O[C@@H]3CO)[C@@H]2O)O[C@H](CO)[C@@H](O)[C@@H]1O[C@@H]1O[C@H](CO)[C@H](O)[C@H](O)[C@H]1O (stereo partly drawn) [Lacto-N-tetraose, Galβ1→3GlcNAcβ1→3Galβ1→4Glc]",0.68 mM
5,"OC[C@H]1O[C@@H](O[C@H]2[C@H](O)[C@@H](O)C(O)O[C@@H]2CO)[C@H](O)[C@@H](O)[C@H]1O (stereo partly drawn) [Lactose, Galβ1→4Glc]",21 mM
